From US20030232851A1, “Viral treatment” (The Procter & Gamble Company, priority 1999, published 2003)
Values after ≈ are worked out from the molar mass of the structure shown. Values joined by “and” are separate entries in the source; they are usually repeats but may differ in a detail not shown here. Identical values can stand only once.

Assays:
Assay type in all cases: cell-based
TPA-induced BCBL-1 cells = assay: Kaposi's Sarcoma test: toxicity values; design: Toxicity Values, samples 1-3 / Toxicity Values, average: scale not given here
Method: (§1) The DNA copy number and the toxicity value were measured and compared with Cidofovir.

[1] = system: HHV8 cell line, TPA-induced BCBL-1 cells; assay: Kaposi's Sarcoma (HHV8) in vitro test, DNA copy number
Method: as §1

Cryptococcus neoformans = assay: Anti-fungal activity (NCCLS M-27A based), Cryptococcus neoformans; conditions: for MFC / MIC: Cryptococcus neoformans
Method: (§2) It was active against cryptococcus neoformans and curvularai lunata. The cidal activity for the C. neoformans is high enough that it is clear […] against this yeast. This test was conducted using a method based upon NCCLS reference method M-27A published in 1997. Solvent, medium and growth controls were set-up with the tests. Once these were read to validate the test performance, the QC fungi were read to insure they had expected results. These steps validated the test system. DMSO was used as a drug-chemical solvent. […] The 90% cut-off is necessary for azoles, which are static and not cidal. The FMC or cidal level was determined by sub-culturing a sample from each tube showing no growth.

Curvularia lunata = assay: Anti-fungal activity (NCCLS M-27A based), Curvularia lunata; conditions: growth inhibited or reduced at least 90%; for MIC: Curvularia lunata
Method: as §2

[2] = growth inhibited or reduced at least 90%

Compound: Nc1ccn(C[C@@H](CO)OCP(=O)(O)O)c(=O)n1 [Cidofovir, reference compound]
- Toxicity Values, % cell control (TPA-induced BCBL-1 cells; 0.08 μM): 83.9%
- Toxicity Values, average (TPA-induced BCBL-1 cells; 0.08 μM): 0.814
- Toxicity Values, samples 1-3 (TPA-induced BCBL-1 cells; 0.08 μM): 0.864 and 0.797 and 0.780
- Toxicity Values, % cell control (TPA-induced BCBL-1 cells; 0.25 μM): 90.1%
- Toxicity Values, average (TPA-induced BCBL-1 cells; 0.25 μM): 0.874
- Toxicity Values, samples 1-3 (TPA-induced BCBL-1 cells; 0.25 μM): 0.867 and 0.819 and 0.934
- Toxicity Values, % cell control (TPA-induced BCBL-1 cells; 0.8 μM): 82.8%
- Toxicity Values, average (TPA-induced BCBL-1 cells; 0.8 μM): 0.803
- Toxicity Values, samples 1-3 (TPA-induced BCBL-1 cells; 0.8 μM): 0.824 and 0.770 and 0.814
- Toxicity Values, % cell control (TPA-induced BCBL-1 cells; 2.5 μM): 75.0%
- Toxicity Values, average (TPA-induced BCBL-1 cells; 2.5 μM): 0.728
- Toxicity Values, samples 1-3 (TPA-induced BCBL-1 cells; 2.5 μM): 0.794 and 0.684 and 0.704
- Toxicity Values, % cell control (TPA-induced BCBL-1 cells; 8 μM): 69.3%
- Toxicity Values, average (TPA-induced BCBL-1 cells; 8 μM): 0.672
- Toxicity Values, samples 1-3 (TPA-induced BCBL-1 cells; 8 μM): 0.639 and 0.700 and 0.677
- Toxicity Values, % cell control (TPA-induced BCBL-1 cells; 25 μM): 4403%
- Toxicity Values, average (TPA-induced BCBL-1 cells; 25 μM): 0.430
- Toxicity Values, samples 1-3 (TPA-induced BCBL-1 cells; 25 μM): 0.443 and 0.398 and 0.447
- DNA Copy Number, % virus control ([1]; 0.08 μM): 95.3%
- DNA Copy Number, average ([1]; 0.08 μM): 8478.0 per 3 μl
- DNA Copy Number, samples 1-3 ([1]; 0.08 μM): 8485.1 per 3 μl and 7948.1 per 3 μl and 9000.8 per 3 μl
- DNA Copy Number, % virus control ([1]; 0.25 μM): 75.0%
- DNA Copy Number, average ([1]; 0.25 μM): 6666.9 per 3 μl
- DNA Copy Number, samples 1-3 ([1]; 0.25 μM): 6668.9 per 3 μl and 6336.3 per 3 μl and 6995.5 per 3 μl
- DNA Copy Number, % virus control ([1]; 0.8 μM): 57.5%
- DNA Copy Number, average ([1]; 0.8 μM): 5108.6 per 3 μl
- DNA Copy Number, % virus control ([1]; 2.5 μM): 14.3%
- DNA Copy Number, average ([1]; 2.5 μM): 1276.9 per 3 μl
- DNA Copy Number, samples 1-3 ([1]; 2.5 μM): 1329.8 per 3 μl and 1198.3 per 3 μl and 1275.7 per 3 μl
- DNA Copy Number, % virus control ([1]; 8 μM): 0.0%
- DNA Copy Number, average ([1]; 8 μM): 3.0 per 3 μl
- DNA Copy Number, % virus control ([1]; 25 μM): 0.0%
- DNA Copy Number, average ([1]; 25 μM): 0.0 per 3 μl
- DNA Copy Number, samples 1-3 ([1]; 25 μM): 0 per 3 μl and 0.0 per 3 μl
- IC50 ([1]; Human gammaherpesvirus 8, BCBL1): 1100 nM

Compound: CCC(C)n1ncn(-c2ccc(N3CCN(c4ccc(OCC5COC(Cn6cncn6)(c6ccc(Cl)cc6Cl)O5)cc4)CC3)cc2)c1=O (centres unmarked) [Itra, Itraconazole]
- MFC (Cryptococcus neoformans; cidal level): > 32 µg/mL
- MIC (Cryptococcus neoformans; [2]): 0.03 µg/mL (≈ 0.0425 µM)
- MIC (Curvularia lunata): 0.03 µg/mL (≈ 0.0425 µM)

Compound: c1ccc2[nH]c(-c3cscn3)nc2c1 [Thia, thiabendazole]
- MFC (Cryptococcus neoformans; cidal level): > 32 µg/mL
- MIC (Cryptococcus neoformans; [2]): 16 µg/mL (≈ 79.5 µM)
- MIC (Curvularia lunata): ≥ 32 µg/mL

Compound: methyl 1,2- benzimidazole carbamate or benomyl
- MFC data (Cryptococcus neoformans; cidal level): >32 µg/mL
- MIC data (Cryptococcus neoformans; [2]): 8 µg/mL
- MIC data (Curvularia lunata): 0.06 µg/mL
